Reference: the NIST ThermoML archive (doi:10.1016/j.jct.2016.04.019)

Experiment: mn = molality of the nth substance listed, in mol/kg
Settings: 298.15 K, 101.3 kPa, Liquid, Frequency=0.0002 MHz, Alternating current cell with electrodes

C[C@H](CCC(=O)[O-])[C@H]1CC[C@H]2[C@@H]3[C@H](O)C[C@@H]4C[C@H](O)CC[C@]4(C)[C@H]3C[C@H](O)[C@]12C.[Na+] [sodium cholate] + O
Settings | electrical conductivity [S/m]
m1 = 0.00042 | 0.0033
m1 = 0.00083 | 0.0062
m1 = 0.00124 | 0.009
m1 = 0.00164 | 0.0118
m1 = 0.00205 | 0.0144
m1 = 0.00245 | 0.0171
m1 = 0.00284 | 0.0197
m1 = 0.00324 | 0.0225
m1 = 0.00363 | 0.025
m1 = 0.00401 | 0.0275
m1 = 0.0044 | 0.0299
m1 = 0.00478 | 0.0322
m1 = 0.00516 | 0.0345
m1 = 0.00553 | 0.0366
m1 = 0.0059 | 0.0388
m1 = 0.00627 | 0.0409
m1 = 0.00664 | 0.043
m1 = 0.007 | 0.0451
m1 = 0.00736 | 0.0473
m1 = 0.00772 | 0.0493
m1 = 0.00807 | 0.0512
m1 = 0.00842 | 0.0532
m1 = 0.00877 | 0.0553
m1 = 0.00912 | 0.0573
m1 = 0.00946 | 0.0591
m1 = 0.00981 | 0.061
m1 = 0.01015 | 0.063
m1 = 0.01048 | 0.0649
m1 = 0.01082 | 0.0668
m1 = 0.01115 | 0.0687
m1 = 0.01148 | 0.0706
m1 = 0.0118 | 0.0724
m1 = 0.01213 | 0.0743
m1 = 0.01245 | 0.0762
m1 = 0.01277 | 0.078
m1 = 0.01309 | 0.0798
m1 = 0.0134 | 0.0816
m1 = 0.01371 | 0.0834
m1 = 0.01402 | 0.0853
m1 = 0.01433 | 0.0871
m1 = 0.01464 | 0.0889
m1 = 0.01494 | 0.0906
m1 = 0.01524 | 0.0924
m1 = 0.01554 | 0.0942
m1 = 0.01584 | 0.0959
m1 = 0.01614 | 0.0976
m1 = 0.01643 | 0.0993
m1 = 0.01672 | 0.101
m1 = 0.01701 | 0.103
m1 = 0.0173 | 0.104

CCCCCCCCCCCCOS(=O)(=O)[O-].[Na+] [sodium dodecyl sulfate] + O
Settings | electrical conductivity [S/m]
m1 = 0.001 | 0.0071
m1 = 0.00201 | 0.0137
m1 = 0.00301 | 0.0209
m1 = 0.00401 | 0.0275
m1 = 0.00501 | 0.034
m1 = 0.00602 | 0.041
